How the values were obtained:
Format in all cases: physicochemical
[1] = Absorption spectrum in ethyl acetate solution (spectrophotometer UV-2400PC)
Protocol: In consideration of film thickness, the molar absorption coefficient of the specific metal complex compounds-1, -2, -3 and -4 of the invention is preferably as high as possible, and 60,000 or higher is preferable. The maximum absorption wavelength (λmax) thereof is preferably from 520 nm to 580 nm, and more preferably from 530 nm to 570 nm, in order to improve color purity. The maximum absorption wavelength and the molar absorption coefficient are determined by using a spectrophotometer UV-2400PC (manufactured by Shimadzu Corporation).
The molar absorption coefficient (ε) of each of the obtained compounds was measured in an ethyl acetate solution using a spectrophotometer (trade name: UV-2400PC; manufactured by Shimadzu Corporation). The absorbance (Abs) at 450 nm was evaluated by normalizing the absorbance at a maximum absorption wavelength (λmax) to 1.0. […] The measurement results of the absorbance (Abs value), maximum absorption wavelength (λmax), and molar absorption coefficient (ε) are shown in Table 1.
By the method similar to the reaction scheme in Synthesis Example 1 above, the exemplary compounds (dipyrromethene metal complex compounds or tautomers thereof) shown in Table 1 were synthesized. The identification of the compounds and the measurement of the maximum absorption wavelength (λmax) and the molar absorption coefficient (ε) of the compounds were performed similarly to Synthesis Example 1 above.

[2] = Storage stability of colored resist solution (precipitation after one month at room temperature); parameters: key: A: No precipitation was observed; B: Slight precipitation was observed; C: Precipitation was observed; details: negative-working colored resist solution, visual precipitation
Text: 9.4 g of the resist solution obtained in section 1 above and 0.35 g of the exemplary compound Ia-12 synthesized above (a compound represented by Formula (4): dipyrromethene complex compound) were mixed and dissolved, whereby a colored resist solution (a negative-working ultraviolet-sensitive colored curable composition) was obtained.
The colored resist solution was stored for one month at room temperature, and then degree of precipitation was visually observed. The storage stability was evaluated according to the following criteria.
A: No precipitation was observed
B: Slight precipitation was observed
C: Precipitation was observed

[3] = Transmittance at 450 nm of the color filter; details: negative-working colored resist, 1.0 μm film; transmittance at λmax normalized to 2%
Protocol: The colored resist solution obtained in section 3 above was applied to an undercoat layer side of the glass substrate having an undercoat layer obtained in section 2 above by a spin coater such that a film thickness was 1.0 μm. Subsequently, the film was pre-baked at 100° C. for 120 sec, whereby a monochromatic color filter was obtained.
The transmission spectrum of the color filter obtained above was measured, and the transmittance at 450 nm was evaluated according to the following criteria. The transmittance of the color filter at 450 nm was evaluated by correcting (normalizing) the transmittance at the maximum absorption wavelength of the colorant included in the color filter to 2%. A larger transmittance indicates greater transmission of blue light, which indicates favorable magenta or violet color that can be used in a blue filter.
A: Transmittance at 450 nm was 90% or more
B: Transmittance at 450 nm was 80% or more but not more than 90%
C: Transmittance at 450 nm was not more than 80%

[4] = Heat resistance of coating film (color difference ΔEab before and after heating); details: 100° C. for 1 hour on hot plate
Protocol: A glass substrate having undercoat layer formed by applying the colored resin composition obtained in section 3 above was heat-treated at 100° C. for 1 hour using a hot plate, and the color difference (ΔEab) between before and after the heating was determined by using a […] MCPD-1000 (trade name, manufactured by Otsuka Electronics Co., Ltd.). The heat resistance was evaluated according to the following criteria. A smaller AEab value indicates better heat resistance.
(§1) A: ΔEab value was less than 6
(§2) B: ΔEab value was from 6 to 10
(§3) C: ΔEab value was more than 10

[5] = Light-fastness of coating film (color difference ΔEab before and after xenon lamp irradiation); details: xenon lamp 20,000 luxes for 10 hours (200,000 lux·h)
Protocol: A glass substrate having undercoat layer formed by applying the colored resin composition obtained in section 3 above was irradiated with a xenon lamp at an intensity of 20,000 luxes for 10 hours (equivalent to 200,000 lux·h), and the color difference ΔEab between before and after the irradiation was determined. The light-fastness was evaluated according to the following criteria. A smaller ΔEab value indicates better light-fastness.
as §1, §2, §3

| SMILES | maximum absorption wavelength (λmax) [1] | molar absorption coefficient (ε) [1] | Abs value at 450 nm when normalized to Abs = 1.0 at λmax [1] | Storage stability [2] | Transmittance at 450 nm [3] | Heat resistance [4] | Light-fastness [5] |
| --- | --- | --- | --- | --- | --- | --- | --- |
| CC1CC(C(C)(C)C)C(OC(=O)c2c(-c3ccccc3)c3[n](c2NC(=O)c2cccc(C(F)(F)F)c2)[Zn-]([OH])[N+]2=C(NC(=O)C(C)Sc4cc(C(=O)O)cc(C(=O)O)c4)C(C#N)=C(c4ccccc4)C2=C3)C(C(C)(C)C)C1 (centres unmarked) [Ib-15] | 562 nm | 87,100 | 0.0089 | A | A (Transmittance at 450 nm was 90% or more) | A (ΔEab value was less than 6) | A (ΔEab value was less than 6) |
| CC1=C(C(=O)OC2C(C(C)(C)C)CC(C)CC2C(C)(C)C)C(NC(=O)c2c(F)c(F)c(O)c(F)c2F)=[N+]2C1=Cc1c(C)c(C(=O)OC3C(C(C)(C)C)CC(C)CC3C(C)(C)C)c(NC(=O)c3c(F)c(F)c(O)c(F)c3F)[n]1[Zn-]2[OH] (centres unmarked) [IIa-39] | 553 nm | 109,400 | 0.0119 | A | A (Transmittance at 450 nm was 90% or more) | A (ΔEab value was less than 6) | A (ΔEab value was less than 6) |
| CC1CC(C(C)(C)C)C(OC(=O)c2c(-c3ccccc3)c(C=C3N=C(NC(=O)C(C)(C)C)C(C#N)=C3c3ccccc3)[n]([Zn][OH])c2NC(=O)c2c(F)c(F)c(C(=O)O)c(F)c2F)C(C(C)(C)C)C1 (centres unmarked) [Ib-69] | 557 nm | 99,200 | 0.0111 | A | A (Transmittance at 450 nm was 90% or more) | A (ΔEab value was less than 6) | A (ΔEab value was less than 6) |
| Cc1c(C(=O)OC2C(C(C)(C)C)CC(C)CC2C(C)(C)C)c(NC(=O)c2cccc(C(F)(F)F)c2)[n]2c1C=C1C(c3ccccc3)=C(C#N)C(NC(=O)C(C)Sc3cc(C(=O)O)cc(C(=O)O)c3)=[N+]1[Zn-]2[OH] (centres unmarked) [Ia-15] | 558 nm | 91,000 | 0.091 | A | A (Transmittance at 450 nm was 90% or more) | A (ΔEab value was less than 6) | A (ΔEab value was less than 6) |
| CC1CC(C(C)(C)C)C(OC(=O)C2=C(c3ccccc3)C3=Cc4c(-c5ccccc5)c(C(=O)OC5C(C(C)(C)C)CC(C)CC5C(C)(C)C)c(NC(=O)c5cccc(C(F)(F)F)c5)[n]4[Zn-]([OH])[N+]3=C2NC(=O)c2cccc(C(F)(F)F)c2)C(C(C)(C)C)C1 (centres unmarked) [IIb-6] | 560 nm | 114,000 | 0.0079 | A | A (Transmittance at 450 nm was 90% or more) | A (ΔEab value was less than 6) | A (ΔEab value was less than 6) |
| CC1CC(C(C)(C)C)C(OC(=O)C2=C(c3ccccc3)C3=Cc4c(-c5ccccc5)c(C(=O)OC5C(C(C)(C)C)CC(C)CC5C(C)(C)C)c(NC(=O)c5ccc(OC(F)(F)F)cc5)[n]4[Zn-]([OH])[N+]3=C2NC(=O)c2ccc(OC(F)(F)F)cc2)C(C(C)(C)C)C1 (centres unmarked) [IIb-8] | 561 nm | 92,600 | 0.0135 | A | A (Transmittance at 450 nm was 90% or more) | A (ΔEab value was less than 6) | A (ΔEab value was less than 6) |
| CC(=O)NC1=[N+]2C(=Cc3c(-c4ccccc4)c(C(=O)OC4C(C(C)(C)C)CC(C)CC4C(C)(C)C)c(NC(=O)c4cc(F)c(F)c(F)c4)[n]3[Zn-]2[OH])C(c2ccccc2)=C1C#N (centres unmarked) [Ib-61] | 558 nm | 89,100 | 0.0101 | A | A (Transmittance at 450 nm was 90% or more) | A (ΔEab value was less than 6) | A (ΔEab value was less than 6) |
| CC1=C(C(=O)OC2C(C(C)(C)C)CC(C)CC2C(C)(C)C)C(NC(=O)c2cccc(C(F)(F)F)c2)=[N+]2C1=Cc1c(C)c(C(=O)OC3C(C(C)(C)C)CC(C)CC3C(C)(C)C)c(NC(=O)c3cccc(C(F)(F)F)c3)[n]1[Zn-]2[OH] (centres unmarked) [IIa-6] | 552 nm | 106,300 | 0.0127 | A | A (Transmittance at 450 nm was 90% or more) | A (ΔEab value was less than 6) | A (ΔEab value was less than 6) |
| CC1CC(C(C)(C)C)C(OC(=O)c2c(-c3ccccc3)c3[n](c2NC(=O)c2cccc(F)c2C(=O)O)[Zn-]([OH])[N+]2=C(NC(=O)C(C)Sc4cc(C(=O)O)cc(C(=O)O)c4)C(C#N)=C(c4ccccc4)C2=C3)C(C(C)(C)C)C1 (centres unmarked) [Ib-46] | 560 nm | 66,100 | 0.0186 | B | A (Transmittance at 450 nm was 90% or more) | A (ΔEab value was less than 6) | A (ΔEab value was less than 6) |
| Cc1c(C(=O)OC2C(C(C)(C)C)CC(C)CC2C(C)(C)C)c(NC(=O)c2ccccc2C(F)(F)F)[n]2c1C=C1C(c3ccccc3)=C(C#N)C(NC(=O)C(C)Sc3cc(C(=O)O)cc(C(=O)O)c3)=[N+]1[Zn-]2[OH] (centres unmarked) [Ia-12] | 560 nm | 81,400 | 0.0154 | A | A (Transmittance at 450 nm was 90% or more) | A (ΔEab value was less than 6) | A (ΔEab value was less than 6) |
| CC1CC(C(C)(C)C)C(OC(=O)c2c(-c3ccccc3)c(C=C3N=C(NC(=O)C(C)SCCCS(=O)(=O)[O-])C(C#N)=C3c3ccccc3)[n]([Zn][OH])c2NC(=O)c2cc(F)cc(F)c2)C(C(C)(C)C)C1.[Na+] (centres unmarked) [Ib-40] | 562 nm | 95,600 | 0.0082 | A | A (Transmittance at 450 nm was 90% or more) | B (ΔEab value was from 6 to 10) | B (ΔEab value was from 6 to 10) |

Reference: patent US8343696B2, “Colored curable composition, fluorine-containing dipyrromethene compound and tautomer thereof, and fluorine-containing dipyrromethene metal complex and tautomer thereof, and color filter using the same and method for producing the color filter” (FUJIFILM Corporation, priority 2008, dated 2013)
